From patent US8546373B2 (Biogenic Innovations, LLC, priority 2009, dated 2013)

Tested on: Streptococcus pneumonia
Conditions: 7 h, 5 %

C[S+](C)[O-] [DMSO, dimethyl sulfoxide]
reduction in viability: approximately 25%
